Experimental data published in paper PMC10954709, “Structure of an open KATP channel reveals tandem PIP2 binding sites mediating the Kir6.2 and SUR1 regulatory interface” (Nature Communications, 2024).

What was measured:
SUR1/Kir6.2^Q52R channel = target: T1, SUR1/Kir6.2^Q52R channel (UniProt P70673+Q09427, Q52R); assay: ATP inhibition, inside-out patch-clamp recording, COSm6 cells; assay type: biochemical, rat Kir6.2, hamster SUR1; conditions: for % current: mean, relative to maximum current in K-INT
T1 construct: expressed in transfected cells; host or cells: COSm6
T1 sequence (P70673 whole entry Q52R): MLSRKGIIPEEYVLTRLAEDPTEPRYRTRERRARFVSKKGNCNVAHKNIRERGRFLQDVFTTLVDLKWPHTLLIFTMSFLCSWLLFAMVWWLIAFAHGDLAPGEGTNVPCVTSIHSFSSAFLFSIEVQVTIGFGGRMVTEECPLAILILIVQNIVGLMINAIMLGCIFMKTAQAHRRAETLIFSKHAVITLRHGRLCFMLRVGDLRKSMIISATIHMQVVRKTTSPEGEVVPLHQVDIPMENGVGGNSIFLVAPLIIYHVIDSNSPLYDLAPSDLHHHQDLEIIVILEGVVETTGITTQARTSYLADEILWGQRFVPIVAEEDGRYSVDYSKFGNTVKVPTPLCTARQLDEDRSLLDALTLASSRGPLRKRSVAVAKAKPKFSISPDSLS
T1 sequence (Q09427 whole entry): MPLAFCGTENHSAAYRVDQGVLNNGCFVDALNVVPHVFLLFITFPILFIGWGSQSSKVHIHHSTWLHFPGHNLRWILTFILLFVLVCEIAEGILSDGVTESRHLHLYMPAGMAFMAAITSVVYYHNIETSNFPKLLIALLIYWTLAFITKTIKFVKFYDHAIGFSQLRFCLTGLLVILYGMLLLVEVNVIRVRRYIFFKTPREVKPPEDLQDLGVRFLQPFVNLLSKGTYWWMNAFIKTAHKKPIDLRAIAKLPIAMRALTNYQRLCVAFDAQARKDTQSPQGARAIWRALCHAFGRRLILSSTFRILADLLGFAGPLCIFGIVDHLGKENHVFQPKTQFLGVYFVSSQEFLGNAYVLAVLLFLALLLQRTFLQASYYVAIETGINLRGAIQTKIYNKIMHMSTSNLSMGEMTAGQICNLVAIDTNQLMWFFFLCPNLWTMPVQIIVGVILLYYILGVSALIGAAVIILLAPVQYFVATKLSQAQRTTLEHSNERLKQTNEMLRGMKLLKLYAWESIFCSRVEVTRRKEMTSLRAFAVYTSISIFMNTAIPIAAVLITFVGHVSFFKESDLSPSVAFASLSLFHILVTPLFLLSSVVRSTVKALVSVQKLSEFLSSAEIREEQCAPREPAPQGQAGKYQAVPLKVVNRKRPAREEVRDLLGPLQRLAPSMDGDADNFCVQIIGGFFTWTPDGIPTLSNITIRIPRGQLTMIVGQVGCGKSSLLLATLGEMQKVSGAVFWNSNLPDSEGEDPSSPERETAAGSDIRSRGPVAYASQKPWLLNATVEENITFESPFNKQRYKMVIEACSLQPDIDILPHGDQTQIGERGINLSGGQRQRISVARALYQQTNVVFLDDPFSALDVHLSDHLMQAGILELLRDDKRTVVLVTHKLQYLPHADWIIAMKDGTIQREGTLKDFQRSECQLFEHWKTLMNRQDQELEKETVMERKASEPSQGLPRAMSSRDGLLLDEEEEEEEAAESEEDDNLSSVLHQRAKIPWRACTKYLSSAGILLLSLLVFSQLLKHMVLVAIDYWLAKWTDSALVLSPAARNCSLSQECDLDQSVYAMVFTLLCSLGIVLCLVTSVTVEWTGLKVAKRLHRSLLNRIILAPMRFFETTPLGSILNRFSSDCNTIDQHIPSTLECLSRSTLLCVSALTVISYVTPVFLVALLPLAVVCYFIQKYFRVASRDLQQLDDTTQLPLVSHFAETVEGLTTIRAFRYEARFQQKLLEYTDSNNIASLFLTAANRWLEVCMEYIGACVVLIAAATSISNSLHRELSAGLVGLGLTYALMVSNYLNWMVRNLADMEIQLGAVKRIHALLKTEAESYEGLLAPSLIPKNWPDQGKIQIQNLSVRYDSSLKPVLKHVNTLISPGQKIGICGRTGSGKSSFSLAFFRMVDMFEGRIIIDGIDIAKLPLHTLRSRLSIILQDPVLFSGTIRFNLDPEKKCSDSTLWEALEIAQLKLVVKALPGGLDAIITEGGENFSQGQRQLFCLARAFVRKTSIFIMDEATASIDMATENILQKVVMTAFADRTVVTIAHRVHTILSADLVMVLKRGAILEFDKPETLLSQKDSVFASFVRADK
Procedure: (§1) For electrophysiology experiments, COSm6 cells were co-transfected with various combination of WT or mutant SUR1 and Kir6.2 cDNAs (SUR1 in pECE and Kir6.2 in pCDNA3) along with the cDNA for the Green Fluorescent Protein (to facilitate identification of transfected cells) using FuGENE® 6 (Promega). Mutant SUR1 and Kir6.2 were constructed using QuikChange (mutagenesis primers are shown in Supplementary Table 2). Cells were plated onto glass coverslips 24 h after transfection and recordings made in the following two days. All experiments were performed at room temperature. Micropipettes were pulled from non-heparinized Kimble glass (Fisher Scientific) on a horizontal puller (Sutter Instrument). Electrode resistance was typically 1-2 MΩ when filled with K-INT solution containing 140 mM KCl, 10 mM K-HEPES, 1 mM K-EGTA, 1 mM EDTA, pH 7.3. ATP was added as the potassium salt. Inside-out patches of cells bathed in K-INT were voltage-clamped with an Axopatch 1D amplifier (Axon Instruments). ATP or porcine brain PIP2 (Avanti Polar Lipids; prepared in K-INT and bath sonicated in ice water for 30 min before use) were added to K-INT as specified in the figure legend. All currents were measured at a membrane potential of −50 mV (pipette voltage = +50 mV). Data were analyzed using pCLAMP10 software (Axon Instrument). Off-line analysis was performed using Clampfit and GraphPad. Data were presented as mean ± standard error of the mean (S.E.M). ATP inhibition dose-response curves were obtained by fitting data to the Hill equation (Irel = 1/(1 + ([ATP]/IC50)^H)), where Irel is the current relative to the maximum currents in K-INT solution (expressed as % current in Fig. 7c and Supplementary Fig. 7a), IC50 is the ATP concentration that causes half-maximal inhibition, and H is the Hill coefficient. Note H was allowed to vary for the curves shown in Fig. 7c and Supplementary Fig. 7a.

[1] = target: T2, SUR1/Kir6.2^Q52R/R176A channel (UniProt P70673+Q09427, Q52R/R176A); assay: as above; assay type: biochemical, rat Kir6.2, hamster SUR1; conditions: for % current: mean, relative to maximum current in K-INT
T2 construct: expressed in transfected cells; host or cells: COSm6
T2 sequence (Q09427 whole entry): as above
T2 sequence (P70673 whole entry Q52R/R176A): as the sequence (P70673 whole entry Q52R) above, with R176A counted along it
Procedure: as §1

[2] = target: T3, SUR1/Kir6.2^R176A channel (UniProt P70673+Q09427, R176A); assay: as above; assay type: biochemical, rat Kir6.2, hamster SUR1; conditions: for % current: mean, relative to maximum current in K-INT
T3 construct: expressed in transfected cells; host or cells: COSm6
T3 sequence (Q09427 whole entry): as the sequence (Q09427 whole entry) above
T3 sequence (P70673 whole entry R176A): as the sequence (P70673 whole entry Q52R) above, with R52Q, R176A counted along it
Procedure: as §1

[3] = target: T4, SUR1^K134A/Kir6.2 channel (UniProt P70673+Q09427, K134A); assay: as above; assay type: biochemical, rat Kir6.2, hamster SUR1; conditions: for % current: mean, relative to maximum current in K-INT
T4 construct: expressed in transfected cells; host or cells: COSm6
T4 sequence (Q09427 whole entry K134A): as the sequence (Q09427 whole entry) above, with K134A counted along it
T4 sequence (P70673 whole entry): as the sequence (P70673 whole entry Q52R) above, with R52Q counted along it
Procedure: as §1

[4] = target: T5, SUR1^K134A/Kir6.2^Q52R channel (UniProt P70673+Q09427, K134A/Q52R); assay: as above; assay type: biochemical, rat Kir6.2, hamster SUR1; conditions: for % current: mean, relative to maximum current in K-INT
T5 construct: expressed in transfected cells; host or cells: COSm6
T5 sequence (P70673 whole entry Q52R): as the sequence (P70673 whole entry Q52R) above
T5 sequence (Q09427 whole entry K134A): as the sequence (Q09427 whole entry) above, with K134A counted along it
Procedure: as §1

[5] = target: T6, SUR1^K134A/Kir6.2^Q52R/R176A channel (UniProt P70673+Q09427, K134A/Q52R/R176A); assay: as above; assay type: biochemical, rat Kir6.2, hamster SUR1; conditions: for % current: relative to maximum current in K-INT
T6 construct: expressed in transfected cells; host or cells: COSm6
T6 sequence (Q09427 whole entry K134A): as the sequence (Q09427 whole entry) above, with K134A counted along it
T6 sequence (P70673 whole entry Q52R/R176A): as the sequence (P70673 whole entry Q52R) above, with R176A counted along it
Procedure: as §1

SUR1^W51C/Kir6.2 channel = target: T7, SUR1^W51C/Kir6.2 channel (UniProt P70673+Q09427, W51C); assay: as above; assay type: biochemical, rat Kir6.2, hamster SUR1; conditions: for % current: mean, relative to maximum current in K-INT
T7 construct: expressed in transfected cells; host or cells: COSm6
T7 sequence (P70673 whole entry): as the sequence (P70673 whole entry Q52R) above, with R52Q counted along it
T7 sequence (Q09427 whole entry W51C): as the sequence (Q09427 whole entry) above, with W51C counted along it
Procedure: as §1

[6] = target: T8, SUR1^W51C/Kir6.2^Q52R channel (UniProt P70673+Q09427, Q52R/W51C); assay: as above; assay type: biochemical, rat Kir6.2, hamster SUR1; conditions: for % current: mean, relative to maximum current in K-INT
T8 construct: expressed in transfected cells; host or cells: COSm6
T8 sequence (P70673 whole entry Q52R): as the sequence (P70673 whole entry Q52R) above
T8 sequence (Q09427 whole entry W51C): as the sequence (Q09427 whole entry) above, with W51C counted along it
Procedure: as §1

[7] = target: T9, WT (SUR1/Kir6.2) KATP channels (UniProt P70673+Q09427); assay: as above; assay type: biochemical, rat Kir6.2, hamster SUR1; conditions: for % current: mean, relative to maximum current in K-INT
T9 construct: expressed in transfected cells; host or cells: COSm6
T9 sequence (P70673 whole entry): as the sequence (P70673 whole entry Q52R) above, with R52Q counted along it
T9 sequence (Q09427 whole entry): as the sequence (Q09427 whole entry) above
Procedure: as §1

Kir6.2^Q52R KATP channel = tested on: Kir6.2^Q52R KATP channel; design: method as in PMID 16123353, PMID 15583126; conditions: Kir6.2^Q52R relative to WT; cited from earlier work
[8] = tested on: KATP channel with engineered Kir6.2-Q52/SUR1-E203 charged amino acid pair; design: method as in PMID 22802363; conditions: engineered charged amino acid pair enforcing Kir6.2-Q52 and SUR1-E203 interaction; cited from earlier work
[9] = mean ± SEM, Hill fit, −50 mV, K-INT

## Nc1ncnc2c1ncn2[C@@H]1O[C@H](COP(=O)(O)OP(=O)(O)OP(=O)(O)O)[C@@H](O)[C@H]1O [ATP]
SUR1/Kir6.2^Q52R channel; ATP 10 μM
  % current: 94.34%
SUR1/Kir6.2^Q52R channel; ATP 100 μM
  % current: 77.97%
SUR1/Kir6.2^Q52R channel; ATP 200 μM
  % current: 34.77%
SUR1/Kir6.2^Q52R channel; ATP 1 mM
  % current: 15.08%
SUR1/Kir6.2^Q52R channel; ATP 2 mM
  % current: 2.12%
SUR1/Kir6.2^Q52R channel; ATP 5 mM
  % current: 2.88%
SUR1/Kir6.2^Q52R channel; Hill fit, H allowed to vary
  Hill coefficient (H) of ATP inhibition: 2.34
SUR1/Kir6.2^Q52R channel; [9]
  IC50: 161 ± 16.2 µM
[1]; ATP 1 μM
  % current: 93.65%
[1]; ATP 10 μM
  % current: 70.34%
[1]; ATP 100 μM
  % current: 6.88%
[1]; ATP 200 μM
  % current: 3.51%
[1]; ATP 1 mM
  % current: 0.92%
[1]; ATP 2 mM
  % current: 0.12%
[1]; Hill fit, H allowed to vary
  Hill coefficient (H) of ATP inhibition: 1.41
[1]; [9]
  IC50: 18 ± 1.2 µM
[2]; ATP 1 μM
  % current: 83.45%
[2]; ATP 10 μM
  % current: 56.97%
[2]; ATP 100 μM
  % current: 7.94%
[2]; ATP 1 mM
  % current: 6.02%
[2]; ATP 2 mM
  % current: 1.48%
[2]; Hill fit, H allowed to vary
  Hill coefficient (H) of ATP inhibition: 0.84
[2]; [9]
  IC50: 11.3 ± 1.95 µM
[3]; ATP 1 μM
  % current: 90.28%
[3]; ATP 10 μM
  % current: 19.80%
[3]; ATP 100 μM
  % current: 5.33%
[3]; ATP 200 μM
  % current: 0.84%
[3]; ATP 1 mM
  % current: 0.93%
[3]; ATP 2 mM
  % current: 0.25%
[3]; Hill fit, H allowed to vary
  Hill coefficient (H) of ATP inhibition: 1.54
[3]; [9]
  IC50: 4.12 ± 0.3 µM
[4]; ATP 1 μM
  % current: 98.42%
[4]; ATP 10 μM
  % current: 90.13%
[4]; ATP 100 μM
  % current: 32.09%
[4]; ATP 200 μM
  % current: 5.40%
[4]; ATP 1 mM
  % current: 0.80%
[4]; ATP 5 mM
  % current: 0.06%
[4]; Hill fit, H allowed to vary
  Hill coefficient (H) of ATP inhibition: 1.55
[4]; [9]
  IC50: 54.1 ± 7.14 µM
[5]; ATP 1 μM, one cell
  % current: 40.58%
[5]; ATP 10 μM, mean
  % current: 44.57%
[5]; ATP 100 μM, mean
  % current: 4.58%
[5]; ATP 1 mM, mean
  % current: -0.08%
[5]; ATP 5 mM, mean
  % current: 0.00%
[5]; Hill fit, H allowed to vary
  Hill coefficient (H) of ATP inhibition: 1.18
[5]; [9]
  IC50: 8.3 ± 1.11 µM
SUR1^W51C/Kir6.2 channel; ATP 1 μM
  % current: 94.89%
SUR1^W51C/Kir6.2 channel; ATP 10 μM
  % current: 75.92%
SUR1^W51C/Kir6.2 channel; ATP 100 μM
  % current: 6.20%
SUR1^W51C/Kir6.2 channel; ATP 200 μM
  % current: 6.36%
SUR1^W51C/Kir6.2 channel; ATP 1 mM
  % current: 1.93%
SUR1^W51C/Kir6.2 channel; ATP 2 mM
  % current: 3.08%
SUR1^W51C/Kir6.2 channel; ATP 5 mM
  % current: 0%
SUR1^W51C/Kir6.2 channel; [9]
  IC50: 20.9 ± 1.96 µM
[6]; ATP 1 μM
  % current: 97.59%
[6]; ATP 10 μM
  % current: 45.50%
[6]; ATP 100 μM
  % current: 6.41%
[6]; ATP 1 mM
  % current: 1.99%
[6]; ATP 2 mM
  % current: 0.62%
[6]; ATP 5 mM
  % current: 1.82%
[6]; [9]
  IC50: 8.98 ± 0.49 µM
[7]; ATP 1 μM
  % current: 84.78%
[7]; ATP 10 μM
  % current: 39.13%
[7]; ATP 100 μM
  % current: 7.09%
[7]; ATP 200 μM
  % current: 3.13%
[7]; ATP 1 mM
  % current: 4.17%
[7]; ATP 2 mM
  % current: 0.65%
[7]; ATP 5 mM
  % current: 2.98%
[7]; Hill fit, H allowed to vary
  Hill coefficient (H) of ATP inhibition: 0.93
[7]; [9]
  IC50: 6.25 ± 0.44 µM
Kir6.2^Q52R KATP channel
  decrease in channel sensitivity to ATP inhibition: 20 fold
[8]
  reduction of ATP inhibition IC50: 100 fold
